Measured values as given in US7625926B2, “P-glycoprotein inhibitor, method for preparing the same and pharmaceutical composition comprising the same” (Hanmi Pharm. Co., Ltd, priority 2003, dated 2009).

System: MCF-7/Dox cell, which is MCF-7 expressing p-glycoprotein
Details: enhancement of anticancer activity of paclitaxel against MCF7/Dox; ED50 of paclitaxel alone / ED50 with 50 nM test compound
Experimental: The cells were subcultured in 5% FBS (fetal bovine serum)/RPMI1640 medium supplemented with glutamine 2 mmol, sodium bicarbonate 3.7 g/L and gentamicin 10 mg/L at 37° C. in 5% CO2 incubator under 100% humidity, and collected using a 0.25% trypsin solution containing 3 mM 1,2-cyclohenxandiamine tetraacetic acid.
The collected cells were plated on a 96 well flat-bottomed plate at a density of 2×10^3 cells/well, and incubated in the same medium for 24 hours. Paclitaxel, an anticancer agent, was diluted with the same medium to obtain 10^−11˜10^−6 M test solutions. […] After incubating for 72 hours, the culture medium was removed, each well was treated with 10% trichloroacetic acid for 1 hour to fix the cells, washed with water, and dried at room temperature. After adding a dyeing solution containing 1% acetic acid with 0.4% SRB (sulforhodamine B) thereto, the wells were kept at room temperature for 30 min, and washed with 1% acetic acid to remove remaining SRB. […] Also, the enhancement of the anticancer activity of paclitaxel against MCF7/Dox (resistant cancer cells) was measured by determining ED^PAC50/ED50, wherein ED^PAC50 is the value determined for the case of paclitaxel alone.

Row | SMILES | ED50^PAC/ED50
1 | COc1cc2c(cc1OC)CN(CCc1ccc(-n3nnc(-c4cc(OC)c(OC)cc4NC(=O)c4ccc5ccccc5n4)n3)cc1)CC2 [Example 2, quinoline-2-carboxylic acid [2-(2-{4-[2-(6,7-dimethoxy-3,4-dihydro-1H-isoquinolin-2-yl)-ethyl]-phenyl}-2H-tetrazol-5-yl)-4,5-dimethoxy-phenyl]-amide] | 2.7
2 | COc1cc2c(cc1OC)CN(CCc1ccc(-n3nnc(-c4cc(OC)c(OC)cc4NC(=O)c4cc5ccccc5cn4)n3)cc1)CC2 [Example 3, isoquinoline-3-carboxylic acid [2-(2-{4-[2-(6,7-dimethoxy-3,4-dihydro-1H-isoquinolin-2-yl)-ethyl]-phenyl}-2H-tetrazol-5-yl)-4,5-dimethoxy-phenyl]-amide] | 3.5
3 | COc1cc2c(cc1OC)CN(CCc1ccc(-n3nnc(-c4cc(OC)c(OC)cc4NC(=O)c4cccc5cccnc45)n3)cc1)CC2 [Example 4, quinoline-8-carboxylic acid [2-(2-{4-[2-(6,7-dimethoxy-3,4-dihydro-1H-isoquinolin-2-yl)-ethyl]-phenyl}-2H-tetrazol-5-yl)-4,5-dimethoxy-phenyl]-amide] | 4.3
4 | COc1cc2c(cc1OC)CN(CCc1ccc(-n3nnc(-c4cc(OC)c(OC)cc4NC(=O)c4nccc5ccccc45)n3)cc1)CC2 [Example 5, isoquinoline-1-carboxylic acid [2-(2-{4-[2-(6,7-dimethoxy-3,4-dihydro-1H-isoquinolin-2-yl)-ethyl]-phenyl}-2H-tetrazol-5-yl)-4,5-dimethoxy-phenyl]-amide] | 1.8
5 | COc1cc2c(cc1OC)CN(CCc1ccc(-n3nnc(-c4cc(OC)c(OC)cc4NC(=O)c4ccnc5ccccc45)n3)cc1)CC2 [Example 6, quinoline-4-carboxylic acid [2-(2-{4-[2-(6,7-dimethoxy-3,4-dihydro-1H-isoquinolin-2-yl)-ethyl]-phenyl}-2H-tetrazol-5-yl)-4,5-dimethoxy-phenyl]-amide] | 3.3
6 | COc1cc2c(cc1OC)CN(CCc1ccc(-n3nnc(-c4cc(OC)c(OC)cc4NC(=O)c4cc(OC)c5ccccc5n4)n3)cc1)CC2 [Example 7, 4-methoxy-quinoline-2-carboxylic acid [2-(2-{4-[2-(6,7-dimethoxy-3,4-dihydro-1H-isoquinolin-2-yl)-ethyl]-phenyl}-2H-tetrazol-5-yl)-4,5-methoxy-phenyl]-amide] | 3.3
7 | COc1cc2c(cc1OC)CN(CCc1ccc(-n3nnc(-c4cc(OC)c(OC)cc4NC(=O)c4cnc5ccccc5n4)n3)cc1)CC2 [Example 8, quinoxaline-2-carboxylic acid [2-(2-{4-[2-(6,7-dimethoxy-3,4-dihydro-1H-isoquinolin-2-yl)-ethyl]-phenyl}-2H-tetrazol-5-yl)-4,5-dimethoxy-phenyl]-amide] | 22.0
8 | COc1cc2c(cc1OC)CN(CCc1ccc(-n3nnc(-c4cc(OC)c(OC)cc4NC(=O)c4ccccn4)n3)cc1)CC2 [Example 9, pyridine-2-carboxylic acid [2-(2-{4-[2-(6,7-dimethoxy-3,4-dihydro-1H-isoquinolin-2-yl)-ethyl]-phenyl}-2H-tetrazol-5-yl)-4,5-dimethoxy-phenyl]-amide] | 3.1
9 | COc1cc2c(cc1OC)CN(CCc1ccc(-n3nnc(-c4cc(OC)c(OC)cc4NC(=O)c4cccnc4)n3)cc1)CC2 [Example 10, N-[2-(2-{4-[2-(6,7-dimethoxy-3,4-dihydro-1H-isoquinolin-2-yl)-ethyl]-phenyl}-2H-tetrazol-5-yl)-4,5-dimethoxy-phenyl]-nicotinamide] | 3.0
10 | COc1cc2c(cc1OC)CN(CCc1ccc(-n3nnc(-c4cc(OC)c(OC)cc4NC(=O)c4ccncc4)n3)cc1)CC2 [Example 11, N-[2-(2-{4-[2-(6,7-dimethoxy-3,4-dihydro-1H-isoquinolin-2-yl)-ethyl]-phenyl}-2H-tetrazol-5-yl)-4,5-dimethoxy-phenyl]-isonicotinamide] | 3.2
11 | COc1cc2c(cc1OC)CN(CCc1ccc(-n3nnc(-c4cc(OC)c(OC)cc4NC(=O)c4cnccn4)n3)cc1)CC2 [Example 12, pyrazine-2-carboxylic acid [2-(2-{4-[2-(6,7-dimethoxy-3,4-dihydro-1H-isoquinolin-2-yl)-ethyl]-phenyl}-2H-tetrazol-5-yl)-4,5-dimethoxy-phenyl]-amide] | 3.0
12 | COc1cc2c(cc1OC)CN(CCc1ccc(-n3nnc(-c4cc(OC)c(OC)cc4NC(=O)c4ccccc4)n3)cc1)CC2 [Example 13, N-[2-(2-{4-[2-(6,7-dimethoxy-3,4-dihydro-1H-isoquinolin-2-yl)-ethyl]-phenyl}-2H-tetrazol-5-yl)-4,5-dimethoxy-phenyl]-benzamide] | 3.4
13 | COc1cc2c(cc1OC)CN(CCc1ccc(-n3nnc(-c4cc(OC)c(OC)cc4NC(=O)c4ccc5ccccc5c4)n3)cc1)CC2 [Example 14, naphthalene-2-carboxylic acid [2-(2-{4-[2-(6,7-dimethoxy-3,4-dihydro-1H-isoquinolin-2-yl)-ethyl]-phenyl}-2H-tetrazol-5-yl)-4,5-dimethoxy-phenyl]-amide] | 2.6
14 | COc1cc2c(cc1OC)CN(CCc1ccc(-n3nnc(-c4cc(OC)c(OC)cc4NC(=O)c4ccccc4F)n3)cc1)CC2 [Example 15] | 4.1
15 | COc1cc2c(cc1OC)CN(CCc1ccc(-n3nnc(-c4cc(OC)c(OC)cc4NC(=O)c4cccc(F)c4)n3)cc1)CC2 [Example 16, N-[2-(2-{4-[2-(6,7-dimethoxy-3,4-dihydro-1H-isoquinolin-2-yl)-ethyl]-phenyl}-2H-tetrazol-5-yl)-4,5-dimethoxy-phenyl]-3-fluoro-benzamide] | 6.7
16 | COc1cc2c(cc1OC)CN(CCc1ccc(-n3nnc(-c4cc(OC)c(OC)cc4NC(=O)c4ccc(F)cc4)n3)cc1)CC2 [Example 17, N-[2-(2-{4-[2-(6,7-dimethoxy-3,4-dihydro-1H-isoquinolin-2-yl)-ethyl]-phenyl}-2H-tetrazol-5-yl)-4,5-dimethoxy-phenyl]-4-fluoro-benzamide] | 4.0
17 | COc1cc2c(cc1OC)CN(CCc1ccc(-n3nnc(-c4cc(OC)c(OC)cc4NC(=O)c4ccc(F)c(F)c4)n3)cc1)CC2 [Example 18, N-[2-(2-{4-[2-(6,7-dimethoxy-3,4-dihydro-1H-isoquinolin-2-yl)-ethyl]-phenyl}-2H-tetrazol-5-yl)-4,5-dimethoxy-phenyl]-3,4-difluoro-benzamide] | 3.7
18 | COc1cc2c(cc1OC)CN(CCc1ccc(-n3nnc(-c4cc(OC)c(OC)cc4NC(=O)c4ccsc4)n3)cc1)CC2 [Example 19, thiophene-3-carboxylic acid [2-(2-{4-[2-(6,7-dimethoxy-3,4-dihydro-1H-isoquinolin-2-yl)-ethyl]-phenyl}-2H-tetrazol-5-yl)-4,5-dimethoxy-phenyl]-amide] | 4.5
19 | COc1cc2c(cc1OC)CN(CCc1ccc(-n3nnc(-c4cc(OC)c(OC)cc4NC(=O)c4ccoc4)n3)cc1)CC2 [Example 20, furan-3-carboxylic acid [2-(2-{4-[2-(6,7-dimethoxy-3,4-dihydro-1H-isoquinolin-2-yl)-ethyl]-phenyl}-2H-tetrazol-5-yl)-4,5-dimethoxy-phenyl]-amide] | 3.5
